# Data published in patent US20260070902A1, “SULFONYL DERIVATIVES AS CCR6 INHIBITORS” (Hoffmann-La Roche Inc., priority 2022, published 2026).
# Columns and labels:
# [1] = target: T1, human CCR6 (Homo sapiens, UniProt P51684); test: CHO-K1 CCR6 chemotaxis assay towards CCL20; format: cell-based; conditions: relative -Log IC50; CHO-K1 cells overexpressing human CCR6; migration towards 100 ng/ml CCL20; 4 h
# T1 sequence (P51684 1-374): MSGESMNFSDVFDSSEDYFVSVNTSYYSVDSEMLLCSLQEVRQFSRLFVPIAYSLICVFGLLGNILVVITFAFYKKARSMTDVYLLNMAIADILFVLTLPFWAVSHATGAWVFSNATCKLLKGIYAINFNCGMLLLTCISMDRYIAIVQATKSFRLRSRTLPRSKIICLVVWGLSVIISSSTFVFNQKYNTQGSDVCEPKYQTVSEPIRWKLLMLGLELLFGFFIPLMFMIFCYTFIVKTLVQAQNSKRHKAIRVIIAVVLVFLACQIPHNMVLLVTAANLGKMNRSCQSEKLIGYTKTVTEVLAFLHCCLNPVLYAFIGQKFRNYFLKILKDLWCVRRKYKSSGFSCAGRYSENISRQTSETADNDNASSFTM
# From the text: CHO-K1 CCR6 Chemotaxis Assay Towards CCL20
# Cells overexpressing human CCR6 were used in the chemotaxis assay (DiscoverX, cAMP Hunter™ CHO-K1 CCR6 Gi Cell Line). Growth medium of these cells consisted of DMEM/F12, non-essential Amino acids (1×NEAA, Gibco 11140050), 10% FBS and 1× pen/strep (Gibco 15140). For the chemotaxis assay, Corning Transwell plates were used with a pore size of 8 m (Corning 351164). Cells were harvested using trypsin and diluted to 4*10^6 cells/ml in chemotaxis medium (DMEM, 0.25% BSA, pen/strep). Compounds were four-fold serially diluted in DMSO. Further dilutions were made in chemotaxis medium. Cells were incubated with test compounds for 30 min at 37° C. prior to initiation of the assay (2*10^6 cells/ml). Final DMSO concentration in the assay was 0.2%. Wells of the Transwell plates were filled with 200 μl chemotaxis medium containing 100 ng/ml CCL20 (R&D systems 360-MP). 50 μl of the cell/compound suspension was added to the inserts of the Transwell plates (100,000 cells/insert). The Transwell plates were placed in an incubator at 37° C., 5% CO2 for 4 h. After 4 h, the number of migrated cells was quantified using CellTiter Glo (Promega). Percentage inhibition values were calculated based on the low and high signal obtained with 0.2% DMSO in chemotaxis medium without and with CCL20, respectively. The relative −Log IC50 was determined with GraphPad Prism 9 using a four-parameter dose-response model.
# [2] = target: T1, human CCR6; test: Human CCR6-CRE reporter assay; format: cell-based; parameters: The second construct contained the open reading frame of human CCR6 in the pUNO1 backbone; host or cells: 293FT cells; conditions: relative -Log IC50; 293FT cells transfected with human CCR6 and CRE-luciferase reporter; 6 μM Forskolin, 6 nM CCL20; 5 h
# Summary of the method: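 293FT cells transiently co-transfected with human CCR6 and a CRE-luc2P reporter, used 48 h later. Compounds incubated with cells in medium containing 6 μM Forskolin and 6 nM CCL20 (assay-medium levels), 0.1% DMSO final, 5 h at 37° C; luminescence read, relative −Log IC50 from four-parameter fit.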
Structure (SMILES),IC50 [1],IC50 [2]
"CN(C)C(=O)c1cccc(-c2ccc(S(=O)(=O)[C@H]3CC[C@H](Nc4ccc(S(F)(F)(F)(F)F)cc4)CC3)cc2)c1 [Example 19, N,N-dimethyl-4′-{[trans-4-{[4-(pentafluoro-λ^6-sulfanyl)phenyl]Amino}cyclohexyl]sulfonyl}-[1,1′-biphenyl]-3-carboxamide]",398 nM,63.1 nM
"CNC(=O)c1cccc(-c2ccc(S(=O)(=O)[C@H]3CC[C@H](Nc4ccc(S(F)(F)(F)(F)F)cc4)CC3)cc2)c1 [Example 21, N-methyl-4′-{[trans-4-{[4-(pentafluoro-λ^6-sulfanyl)phenyl]Amino}cyclohexyl]sulfonyl}-[1,1′-biphenyl]-3-carboxamide]",12.6 nM,31.6 nM
"CNC(=O)c1ccc(-c2ccc(S(=O)(=O)[C@H]3CC[C@H](Nc4ccc(S(F)(F)(F)(F)F)cc4)CC3)cc2)cn1 [Example 22, N-methyl-5-(4-{[trans-4-{[4-(pentafluoro-λ^6-sulfanyl)phenyl]Amino}cyclohexyl]sulfonyl}phenyl)pyridine-2-carboxamide]",100 nM,39.8 nM
"NC(=O)c1cccc(-c2ccc(S(=O)(=O)[C@H]3CC[C@H](Nc4ccc(S(F)(F)(F)(F)F)cc4)CC3)cc2)c1 [Example 23, 4′-{[trans-4-{[4-(pentafluoro-λ^6-sulfanyl)phenyl]Amino}cyclohexyl]sulfonyl}-[1,1′-biphenyl]-3-carboxamide]",50.1 nM,50.1 nM
"O=S(=O)(c1ccc(-c2cn3ccnc3cn2)cc1)N1CCC(Nc2ccc(S(F)(F)(F)(F)F)cc2)CC1 [Example 24, 1-(4-{imidazo[1,2-a]pyrazin-6-yl}benzenesulfonyl)-N-[4-(pentafluoro-λ^6-sulfanyl)phenyl]piperidin-4-amine]",501 nM,200 nM
"CC(C)c1nnc2ccc(-c3ccc(S(=O)(=O)N4CCC(Nc5ccc(S(F)(F)(F)(F)F)cc5)CC4)cc3)cn12 [Example 28, N-[4-(pentafluoro-λ^6-sulfanyl)phenyl]-1-{4-[3-(propan-2-yl)-[1,2,4]triazolo[4,3-a]pyridin-6-yl]benzenesulfonyl}piperidin-4-amine]",5.01 nM,31.6 nM
"CC(C)c1cnc2ccc(-c3ccc(S(=O)(=O)N4CCC(Nc5ccc(S(F)(F)(F)(F)F)cc5)CC4)cc3)cn12 [Example 29, N-[4-(pentafluoro-λ^6-sulfanyl)phenyl]-1-{4-[3-(propan-2-yl)imidazo[1,2-a]pyridin-6-yl]benzenesulfonyl}piperidin-4-amine]",50.1 nM,39.8 nM
"COCc1nnc2ccc(-c3ccc(S(=O)(=O)N4CCC(Nc5ccc(S(F)(F)(F)(F)F)cc5)CC4)cc3)cn12 [Example 30, 1-{4-[3-(methoxymethyl)-[1,2,4]triazolo[4,3-a]pyridin-6-yl]benzenesulfonyl}-N-[4-(pentafluoro-λ^6-sulfanyl)phenyl]piperidin-4-amine]",251 nM,50.1 nM
"N#Cc1cnc2ccc(-c3ccc(S(=O)(=O)[C@H]4CC[C@H](Nc5ccc(S(F)(F)(F)(F)F)cc5)CC4)cc3)cn12 [Example 33, 6-(4-{[trans-4-{[4-(pentafluoro-λ^6-sulfanyl)phenyl]Amino}cyclohexyl]sulfonyl}phenyl)imidazo[1,2-a]pyridine-3-carbonitrile]",7.94 nM,63.1 nM
"O=S(=O)(c1ccc(-c2ccc3nncn3c2)cc1)[C@H]1CC[C@H](Nc2ccc(S(F)(F)(F)(F)F)cc2)CC1 [Example 36, 4-(pentafluoro-λ^6-sulfanyl)-N-[trans-4-(4-{[1,2,4]triazolo[4,3-a]pyridin-6-yl}benzenesulfonyl)cyclohexyl]aniline]",1580 nM,126 nM
"NC(=O)c1n[nH]c2ccc(-c3ccc(S(=O)(=O)[C@H]4CC[C@H](Nc5ccc(S(F)(F)(F)(F)F)cc5)CC4)cc3)cc12 [Example 37, 5-(4-{[trans-4-{[4-(pentafluoro-λ^6-sulfanyl)phenyl]Amino}cyclohexyl]sulfonyl}phenyl)-1H-indazole-3-carboxamide]",3.98 nM,63.1 nM
"NC(=O)c1nnc2ccc(-c3ccc(S(=O)(=O)[C@H]4CC[C@H](Nc5ccc(S(F)(F)(F)(F)F)cc5)CC4)cc3)cn12 [Example 39, 6-(4-{[trans-4-{[4-(pentafluoro-λ^6-sulfanyl)phenyl]Amino}cyclohexyl]sulfonyl}phenyl)-[1,2,4]triazolo[4,3-a]pyridine-3-carboxamide]",79.4 nM,251 nM
"N#Cc1nnc2ccc(-c3ccc(S(=O)(=O)[C@H]4CC[C@H](Nc5ccc(S(F)(F)(F)(F)F)cc5)CC4)cc3)cn12 [Example 42, 6-(4-{[trans-4-{[4-(pentafluoro-λ^6-sulfanyl)phenyl]Amino}cyclohexyl]sulfonyl}phenyl)-[1,2,4]triazolo[4,3-a]pyridine-3-carbonitrile]",15.8 nM,251 nM
"Cc1cn2cc(-c3ccc(S(=O)(=O)[C@H]4CC[C@H](Nc5ccc(S(F)(F)(F)(F)F)cc5)CC4)cc3)ncc2n1 [Example 43, 4-(pentafluoro-λ^6-sulfanyl)-N-[trans-4-(4-{2-methylimidazo[1,2-a]pyrazin-6-yl}benzenesulfonyl)cyclohexyl]aniline]",316 nM,158 nM
"O=S(=O)(c1ccc(-c2cn3ccnc3cn2)cc1)[C@H]1CC[C@H](Nc2ccc(S(F)(F)(F)(F)F)cc2)CC1 [Example 44, 4-(pentafluoro-λ^6-sulfanyl)-N-[trans-4-(4-{imidazo[1,2-a]pyrazin-6-yl}benzenesulfonyl)cyclohexyl]aniline]",158 nM,158 nM
"CNC(=O)c1ccc(-c2ccc(S(=O)(=O)[C@H]3CC[C@H](Nc4ccc(S(F)(F)(F)(F)F)cc4)CC3)cc2)nc1 [Example 47, N-methyl-6-(4-{[trans-4-{[4-(pentafluoro-λ^6-sulfanyl)phenyl]Amino}cyclohexyl]sulfonyl}phenyl)pyridine-3-carboxamide]",794 nM,63.1 nM
"CNC(=O)c1cc(-c2ccc(S(=O)(=O)[C@H]3CC[C@H](Nc4ccc(S(F)(F)(F)(F)F)cc4)CC3)cc2)ccn1 [Example 48, N-methyl-4-(4-{[trans-4-{[4-(pentafluoro-λ^6-sulfanyl)phenyl]Amino}cyclohexyl]sulfonyl}phenyl)pyridine-2-carboxamide]",39.8 nM,39.8 nM
"NC(=O)c1ccc(-c2ccc(S(=O)(=O)[C@H]3CC[C@H](Nc4ccc(S(F)(F)(F)(F)F)cc4)CC3)cc2)nc1 [Example 49, 6-(4-{[trans-4-{[4-(pentafluoro-λ^6-sulfanyl)phenyl]Amino}cyclohexyl]sulfonyl}phenyl)pyridine-3-carboxamide]",501 nM,79.4 nM
"O=C1NCc2cc(-c3ccc(S(=O)(=O)[C@H]4CC[C@H](Nc5ccc(S(F)(F)(F)(F)F)cc5)CC4)cc3)ccc21 [Example 58, 5-(4-{[trans-4-{[4-(pentafluoro-λ^6-sulfanyl)phenyl]Amino}cyclohexyl]sulfonyl}phenyl)-2,3-dihydro-1H-isoindol-1-one]",15.8 nM,200 nM
"O=C1Cc2ccc(-c3ccc(S(=O)(=O)[C@H]4CC[C@H](Nc5ccc(S(F)(F)(F)(F)F)cc5)CC4)cc3)cc2N1 [Example 59, 6-(4-{[trans-4-{[4-(pentafluoro-λ^6-sulfanyl)phenyl]Amino}cyclohexyl]sulfonyl}phenyl)-2,3-dihydro-1H-indol-2-one]",15.8 nM,158 nM
